Measurements taken from US4902690A, “Pest controlling compositions” (The General Hospital Corporation, priority 1988, dated 1990).
Where “and” joins values, the source holds several entries; their conditions need not be identical. Equal values may be shown once. Each block holds one compound with its values, some of them ahead of it.

Legend:
[1] = test system: adenylate cyclase in nerve cord of tobacco hornworm; assay: Octopamine agonist activity, adenylate cyclase in broken cell preparations of insect nerve cord; assay type: biochemical, tobacco hornworm (Manducca sexta); conditions: FIG. 3
Protocol: In addition to the above method employing the firefly light organ, octopamine-sensitive adenylate cyclase can also be measured in tissue preparations from the nerve cord of any desired particular insect pest, using a modification of the method appearing in Nathanson et al. (Science 180:308-310 (1973)) herein incorporated by reference. […]. […] Otherwise, the procedure is identical to that described above.
[…]. The tissue is homogenized (usually 15 mg/ml) as above in 6 mM Tris maleate, pH 7.4. […]. This is done to cancel out the effects of dopamine and serotonin receptors which are usually present in nerve cord. It assures that the compound (B) tested is affecting only octopamine receptors (known to be present in all insect nerve cords).

[2] = test system: tobacco hornworms (Manducca sexta); assay: In vivo leaf test (feeding on sprayed tomato leaves); conditions: for effect of adding IBMX on antifeeding / pesticidal activity of the compound: IBMX 0.1%, FIGS. 9, 10, 17, Tables 4, 7, 8, FIG. 9 at 72 hours; for relative antifeeding potency: dose sprayed on tomato leaves; for antifeeding activity of the compound by itself: FIGS. 10, 13, 17, Table 8; for activity as synergist of DDCDM: FIGS. 14, 15, 16, 8-phenyl-theophylline 0.1% with 0.1% DDCDM compared with 0.1% IBMX; for state of the leaf 72 hours after treatment: 0.1% of each compound, FIG. 11
[3] = test system: octopamine-sensitive adenylate cyclase (firefly lantern octopamine receptor); assay: Octopamine-sensitive adenylate cyclase activation, firefly light organ broken cell preparation; assay type: biochemical, firefly (Photinus pyralis)
[4] = test system: phosphodiesterase enzyme of hornworm nerve cord; assay: PDE inhibitory activity, hornworm nerve tissue; assay type: biochemical, tobacco hornworm (Manducca sexta); conditions: FIG. 8
Text: (§1) The ability of any compound (A) to inhibit phosphodiesterase (PDE) activity in broken cell preparations of firefly lantern or in pest tissues can be determined either (1) by measuring the decrease in rate of hydrolysis of an added amount of cyclic AMP by PDE (see Methods Section of Nathanson et al., Mol. Pharmacol. 12:390-398 (1975)), or (2) by measuring the rate of accumulation of one of the breakdown products of cyclic AMP, such as 5'-AMP or adenosine (see method of Filburn et al., Anal. Biochem. 52:505-516 (1973)). Both of these are herein incorporated by reference.
(§2) In this assay (modified slightly from Filburn and Karn (Analyt. Biochem. 52: 505-516 (1973)), the rate of hydrolysis of labeled cyclic AMP to 5'-AMP by PDE is measured by converting the breakdown product (5'-AMP) to adenosine, which can be separated and measured by alumina chromatography. Specifically, tissue from either the firefly lantern or pest is homogenized (10-20 mg/ml) in 6 mM Tris-maleate buffer, pH 7.4. The hydrolysis reaction is run in test tubes containing (in 100 microliters): 80 mM Tris maleate, pH 7.4; 6 mM MgSO4; 10 pmoles tritiated cyclic AMP (2×10^4 to 2×10^5 cpm, depending upon the activity of the enzyme); 20 microliters of tissue homogenate; and various concentrations of the compound to be tested. In those cases in which the compound is insoluble in aqueous solution at pH 7.4, pH can be varied between pH 6.5 and 9.0 for optimization of solubility. In addition, the test compound can be initially solubilized in either 100% methanol or DMSO and diluted to a final concentration of 10% methanol or DMSO in the assay (in which case solvent controls are run in parallel).
The reaction is started by the addition of homogenate, run for 4 min at 37° C., and terminated by boiling for 90 sec. […] The void volume is discarded and the column is then eluted with 2 ml of 0.1N ammonium acetate, pH 4.0, the eluent collected and counted by liquid scintillation spectrometry. […]

[5] = test system: cyclic AMP content of intact nerve cords of tobacco hornworms; assay: Cyclic AMP content of intact nerve cords incubated in vitro; assay type: cell-based, tobacco hornworm (Manducca sexta); conditions: 100 micromoles/liter of IBMX, 5 minutes in vitro; without PDE inhibitor 8.9±1.6
[6] = test system: Firefly phosphodiesterase enzyme; assay: PDE inhibitory activity, firefly lantern; assay type: biochemical, firefly (Photinus pyralis); conditions: for phosphodiesterase inhibition: FIG. 6
Text: as §1
Generally, any compound capable of maximally inhibiting PDE activity by at least 50% (Vmax -inhibition) and preferably by at least 80% is preferred. Also, in terms of the concentration of the compound required for such inhibition, this can be quantitated by determining the IC 50-inhibition, i.e., the concentration of the compound required to cause 50% of the maximal inhibitioncaused by the compound at any concentration.
as §2
The reaction is started by the addition of homogenate, run for 4 min at 37° C., and terminated by boiling for 90 sec. The 5'AMP formed is then converted to adenosine by the addition of 20 microliters of an aqueous solution of 0.5 Units/ml of 5'-nucleotidase (Sigma, Grade IV), vortexed, and incubated for 30 minutes at 37° C. The second reaction is stopped by addition of 0.4 ml of 0.1N ammonium acetate, pH 4.0. The entire sample is then applied to a 0.5×8 cm column containing neutral alumina prewashed with 20 ml of 0.1N ammonium acetate, pH 4.0. The void volume is discarded and the column is then eluted with 2 ml of 0.1N ammonium acetate, pH 4.0, the eluent collected and counted by liquid scintillation spectrometry. Activity is cpms above that due to a blank which was initially incubated for 0 seconds in the first reaction.

Manducca eggs = assay: Ovacidal test (eggs dipped in drug solutions); assay type: in vivo, Manducca sexta; conditions: IBMX 0.1 g/100 ml alone (C* = no agonist); control without IBMX 80
Protocol: In some cases, test agents were tested for ovacidal activity by dipping groups of 10-50 Manducca eggs in drug solutions for 60 seconds and then determining the percentage of eggs which produced viable larvae. A compound or synergist with active ovacidal activity was one which decreased the percentage of eggs hatched, relative to control.

[7] = test system: adenylate cyclase in firefly lantern; assay: Direct activation of adenylate cyclase in firefly lantern; assay type: biochemical, firefly (Photinus pyralis); conditions: FIG. 4
Protocol: The second type of pest controlling compounds (B2) useable in the present compositions are direct stimulators of the pest enzyme adenylate cyclase. These compounds bypass the receptor, and interact with one or another of the associated catalytic or regulatory subunits of adenylate cyclase, thereby stimulating the formation of cyclic AMP. Suitable compounds can be determined from assay of pest adenylate cyclase as described above.
Adenylate cyclase activation by test compounds was measured in test tubes containing (in 0.3 ml) 80 mM Tris-maleate, pH 7.4; 10 mM theophylline; 8 mM MgCl2; 0.1 mM GTP; 0.5 mM ethylene glycol bis (beta-aminoethyl ether)-N,N,N'N'-tetraacetic acid; 2 mM ATP; 0.06 ml of P2 fraction; and the various compounds to be tested. Prior experiments had determined that, under these conditions, octopamine-sensitive adenylate cyclase activity is optimized. Test compounds were initially solubilized (prior to aqueous dilution) in water or (if soluble) in 50% (v/v) methanol. If insoluble in 50% methanol, compounds may be dissolved initially in 100% methanol, or 100% dimethylsulfoxide, or 100% polyethylene glycol. […] Cyclic AMP in the supernatant was measured by protein-binding assay, according to the method of Brown et al., Adv. […] Protein concentration was determined by the method of Lowry et al., Journal of Biological Chemistry 193:265-275 (1951). […]

[8] = test system: adenylate cyclase, nerve cord of tobacco hornworm larvae; assay: Direct activation of adenylate cyclase, broken cell preparations of hornworm nerve cord; conditions: FIG. 5
[9] = agonist 10^-1 gm/100 ml + PDE Inhibitor IBMX 0.1 g/100 ml
[10] = agonist 10^-1 gm/100 ml, No PDE Inhibitor
[11] = agonist 10^-2 gm/100 ml + PDE Inhibitor IBMX 0.1 g/100 ml
[12] = agonist 10^-2 gm/100 ml, No PDE Inhibitor
[13] = agonist 10^-3 gm/100 ml + PDE Inhibitor IBMX 0.1 g/100 ml
[14] = agonist 10^-3 gm/100 ml, No PDE Inhibitor

Structure (SMILES): NCC(O)c1ccc(O)cc1 (racemic) [(±)-p-octopamine]
activation of adenylate cyclase in nerve cord [1]: potent activators of adenylate cyclase | effect of adding IBMX on antifeeding / pesticidal activity of the compound [2]: greatly increases the percent leaf remaining | Vmax (% OCT) ([3]; Table 1, phenylethylamines, maximal activation as % of that by (±)-p-octopamine, N.A. = No Activity): 81 ± 1 % OCT and 100 ± 1 % OCT

Structure (SMILES): Cn1c(=O)c2[nH]c(-c3ccccc3)nc2n(C)c1=O [8-phenyl-theophylline]
inhibition of feeding (maximal, even at a high dose) ([2]; FIG. 13): ≤ 35% | relative antifeeding potency ([2]; FIG. 13): shows the least activity | antifeeding activity of the compound by itself [2]: little antifeeding activity | activity as synergist of DDCDM [2]: much less activity as a synergist | inhibition of phosphodiesterase activity (maximal) [4]: ≤ 30%

Structure (SMILES): Cc1cc(Cl)ccc1N=CN [DDCDM, di-demethylchlordimeform]
activation of adenylate cyclase in nerve cord [1]: potent activators of adenylate cyclase | state of the leaf 72 hours after treatment [2]: eaten substantial amounts of the leaf | % Leaf Remaining (increase over control) ([2]; DDCDM 0.1 g/100 ml alone): 0% | % Leaf Remaining ([2]; agonist 1 gm/100 ml + PDE Inhibitor IBMX 0.1 g/100 ml): 100% | % Leaf Remaining ([2]; agonist 1 gm/100 ml, No PDE Inhibitor): 100% | % Leaf Remaining [2, 9]: 98% | % Leaf Remaining [2, 10]: 30% | % Leaf Remaining [2, 11]: 85% | % Leaf Remaining [2, 12]: 7% | % Leaf Remaining [2, 13]: 20% | % Leaf Remaining [2, 14]: 5% | Ka ratio ([3]; FIG. 1, formamidines): 4 | Vmax ([3]; FIG. 1, formamidines, % of octopamine): 68%

Structure (SMILES): CC(C)Cn1c(=O)n(C)c(=O)c2[nH]cnc21 [IBMX, isobutylmethylxanthine]
cyclic AMP content of hornworm nerve cord [5]: 21.4 ± 0.8 pmol/mg | state of the leaf 72 hours after treatment [2]: almost entirely consumed | IBMX concentrations at which IBMX itself acted to inhibit feeding ([2]; FIG. 12): 0.4-5 gm/b 100 ml | IBMX concentrations with no effect by itself and no increase of DDCDM activity ([2]; FIG. 12, DDCDM 0.1%): less than 0.001 gm/100 ml | relative antifeeding potency ([2]; FIG. 13): more potent than theophylline | antifeeding activity of the compound by itself [2]: very small inhibitory effect by itself | pattern of PDE inhibition [4]: quite similar to that in the firefly light organ | phosphodiesterase inhibition [6]: more potent inhibitor of the enzyme | % Living Larvae (Manducca eggs): 90%

Structure (SMILES): Cc1cc(Cl)ccc1N=C1NCCN1 [NC 7]
activation of adenylate cyclase in nerve cord [1]: potent activators of adenylate cyclase | effect of adding IBMX on antifeeding / pesticidal activity of the compound [2]: substantial increases in the potency | % Leaf Remaining ([2]; agonist 0.3 (3 × 10^-1) gm/100 ml + PDE Inhibitor IBMX 0.1 g/100 ml): 100% | % Leaf Remaining ([2]; agonist 0.3 (3 × 10^-1) gm/100 ml, No PDE Inhibitor): 80% | % Leaf Remaining [2, 9]: 95% | % Leaf Remaining [2, 10]: 55% | % Leaf Remaining [2, 11]: 85% | % Leaf Remaining [2, 12]: 30% | % Leaf Remaining [2, 13]: 48% | % Leaf Remaining [2, 14]: 23% | Ka^oct /Ka^B ratio ([3]; Table 2, clonidines, N.A. = no activity): 9.8

Structure (SMILES): Cn1c(=O)c2c(ncn2C)n(C)c1=O [caffeine]
activity as synergist of DDCDM [2]: much more powerful in inhibiting leaf feeding than caffeine alone or DDCDM alone | phosphodiesterase inhibition [6]: active as phosphodiesterase inhibitors

Ka ratio [7]: 0.22 | Vmax [7]: 100%
Structure (SMILES): C=C[C@@]1(C)CC(=O)[C@]2(O)[C@@]3(C)[C@@H](O)CCC(C)(C)[C@@H]3[C@H](O)[C@H](OC(C)=O)[C@@]2(C)O1 [forskolin]
antifeeding activity of the compound by itself [2]: has antifeeding activity | effect of adding IBMX on antifeeding / pesticidal activity of the compound [2]: enhanced | Ka ratio [8]: 0.20 | Vmax [8]: about 100%

Structure (SMILES): COc1ccc(C[C@H](N)C(=O)N[C@H]2[C@@H](O)[C@H](n3cnc4c(N(C)C)ncnc43)O[C@@H]2CO)cc1 [puromycin]
activity as synergist of DDCDM [2]: able to synergize the pesticidal activity of DDCDM | Vmax (maximal inhibition of PDE activity) ([6]; FIG. 7): greater than 70% | IC50 ([6]; FIG. 7, read-out: IC50 -inhibition): < 2000 µM
